Measured values published in patent US20070196288A1, “Method of treating periodontitis and of reducing dentinal sensitivity” (Research Foundation of the State University of New York, priority 2006, published 2007).

Key:
[1] = Dissolution of gadolinium materials; assay type: physicochemical
[2] = test system: cell culture media-precipitated proteases from P. Gingivalis; test: BAPNA hydrolysis by culture media-precipitated proteins; assay type: biochemical, P. Gingivalis 381; settings: FIG. 1; inhibitor 2-10 mM tested, 10 mM stated for gadolinium nitrate; 5% 2-mercaptoethanol, 37° C., 1 hour
Procedure: (§1) All steps in the isolation of P. Gingivalis proteins were carried out at 4° C. […] The cells and culture media were separated by centrifugation at 10,000×g for 10 minutes in a Sorvall centrifuge.
To the cell-separated culture supernatant, ammonium sulfate was added to achieve 80% saturation in a volume of 400 ml. After 4 hours, the precipitate was collected by centrifugation at 11,000×g for 45 minutes. It was then dissolved in HEPES and dialyzed against 4 liters of HEPES buffer. The precipitate formed on dialysis was removed by centrifugation at 10,000×g for 30 minutes, the supernatant was collected, and the precipitated material was discarded. Extracted proteins was analyzed for protein content using a Spectrophotometer ND-1000.
(§2) Activity of cell surface-extracted and culture-precipitated proteases was assayed by using the synthetic chromogenic substrate benzoyl-L-Arg-p-nitroanilide (BAPNA). [Erlanger, B. F., Kokowsky, N. & Cohen, W., “The Preparation and Properties of Two New Chromogenic Substrates of Trypsin”, 95 Arch. […] Colorimetric values measured as absorbance were obtained using Spectronic 2000 Methodology for culture media-precipitated proteins.
The reaction mixture consisted of 50 μl of 100 mM substrate in 50 mM HEPES buffer, pH 7, and 25 μl of the sample protease containing 2 mg/ml of protein was used to test chromogenic activity of the substrate. With 5% of 2-mercaptoethanol as reducing agent, volume was made to 250 μl. Various concentrations of the inhibitor 2 mM; 4 mM; 6 mM; 8 mM; 10 mM were used.
(§3) After incubation at 37° C. for 1 hour, 100 μl of 5 N acetic acid was added to stop the reaction in both experimental samples. The total volume was made to 1 ml by addition of water. The p-nitroaniline released was determined by measuring A405.

[3] = test system: cell surface-extracted proteases from P. Gingivalis; test: BAPNA hydrolysis by cell surface-extracted proteins; assay type: biochemical, P. Gingivalis 381; settings: for inhibitory effect on cell surface-extracts (BAPNA hydrolysis): FIG. 2, inhibitor 0.4-2.4 mM tested, 2.4 mM stated for gadolinium nitrate, 5% 2-mercaptoethanol, 37° C., 1 hour; for OD at A405 (p-nitroaniline released): inhibitor concentration 2.4 mM
Procedure: as §1
P. Gingivalis cells collected after centrifugation were washed three times with 50 millimolar (“mM”) HEPES buffer, pH 7.0. The washed cells were stirred with 1% Triton X-100 (Fisher Scientific) dissolved in HEPES (Fisher Scientific) at 4° C. for 15 minutes to solubilize cell surface proteins. The cells were centrifuged at 10,000×g in a Sorvall centrifuge for 10 minutes, and the supernatant was collected. [Sojar, H. T., Lee, J. Y., Bedi, G. S. et al., “Purification and Characterization of a Protease from Porphyromonas Gingivalis Capable of Degrading Salt-Solubilized Collagen”, 61 Infect. Immun. […] The amount of protein was estimated using a Spectrophotometer ND-1000 by absorbance at 280 nm.
as §2
The reaction mixture consisted of 100 μl of 100 mM substrate in 50 mM HEPES buffer, pH 7, 50 μl of an approximately 1 mg/ml of proteins was used to test chromogenic activity of the substrate. With 5% of 2-mercaptoethanol as reducing agent, the volume was made to 500 μl. Various volumes of the inhibitor 0.4 mM; 0.8 mM; 1.2 mM; 1.6 mM; 2.0 mM; 2.4 mM were used.
as §3

[4] = test system: P. Gingivalis proteins extracted from cell surface and precipitated from cell culture media (gelatin-cleaving / collagenolytic activity); test: Gelatin zymography; assay type: biochemical, P. Gingivalis 381; settings: inhibitor 5 mM in development buffer, 37° C. overnight; both protein preparations (FIGS. 3 and 4)
Source text: Since P. Gingivalis proteases cleave gelatin effectively, the gelatin-cleaving activity of the extracted proteins was checked by zymography, as described by Heussen and Dowdle using 10% Zymogen (Gelatin) Gel 1.0 mm×10 well (Invitrogen Corporation). [Heussen, C. & Dowdle, E. B., “Electrophoretic Analysis of Plasminogen Activators in Polyacrylamide Gels Containing Sodium Dodecyl Sulfate and Copolymerized Substrates”, 102 Anal. Biochem. 196-202 (1980).]
The extracted proteins, with the reducing sample buffer containing 5% mercaptoethanol, was electrophoresed. After electrophoresis, the gel was washed in 50 mM HEPES, pH 7.0, containing 2% Triton X-100 for 30 minutes, and rinsed twice with the same buffer without Triton X-100. The gel was then cut into 3 parts before transferring to a development buffer containing 50 mM HEPES, 5% 2-mercaptoethanol, buffered at pH 7.0. One part was incubated with developing buffer whereas the other two parts were incubated in the presence of inhibitor with varying concentrations of 5 mM and 10 mM. The gel was incubated at 37° C. overnight on a rocker. The incubated gel was then fixed with 50% methanol and 12% acetic acid for 30 minutes, and stained with 0.1% Coomassie blue in 50% methanol and 12% acetic acid to visualize lytic bands.

[5] = pH of the applied solution; assay type: physicochemical; settings: pH of the solution or product as applied to dentine

Compound	conditions required for dissolution [1]	inhibition of protease activity (BAPNA hydrolysis), cell culture-precipitated proteins [2] [%]	inhibitory effect on cell surface-extracts (BAPNA hydrolysis) [3] [%]	OD at A405 (p-nitroaniline released) [3]	effect on gelatin-cleaving / collagenolytic activity on zymogram [4]	pH [5]	pH ([5]; listed as Gadolinium nitrate)
O=C([O-])C(=O)[O-].O=C([O-])C(=O)[O-].O=C([O-])C(=O)[O-].[Gd+3].[Gd+3] [Gadolinium oxalate]	required very acidic conditions for dissolution	–	–	–	–	–	–
O.O.O.O.O.O.O.[Ce+3].[Cl-].[Cl-].[Cl-] [cerium chloride, cerium chloride heptahydrate (CeCl3.7H2O)]	–	~11	~32	~0.66	–	–	–
O.O.O.O.O.O.[Cl-].[Cl-].[Cl-].[Gd+3] [gadolinium chloride, gadolinium chloride hexahydrate (GdCl3.6H2O)]	–	~70	~54	~0.45	–	–	–
O.O.O.O.O.O.O=[N+]([O-])[O-].O=[N+]([O-])[O-].O=[N+]([O-])[O-].[Gd+3] [gadolinium nitrate, gadolinium nitrate hexahydrate, (Gd(NO3)3.6H2O)]	–	–	~56	~0.43	inhibited the collagenolytic activity	4.3	about 4.3
[Gd] [gadolinium]	–	–	–	–	negative staining bands were absent	–	–
O.O.O.O.O.O.[Cl][Sm]([Cl])[Cl] [samarium chloride, samarium chloride hexahydrate, (SmCl3.6H2O)]	–	~75	~59	~0.39	–	–	–
